Here are results for 1 molecule from patent US20110318415A1, “Hollow Gold Nanospheres (HAuNSs) and HAuNSs-Loaded Microspheres Useful in Drug Delivery” (priority 2009, published 2011).

Test [1] relates to MDA-MB-231 cells. The test is described as follows: Cell uptake of DOX@HAuNS and DOX@PEG-HAuNS (fluorescence and dark-field microscopy). The test is classed as cell-based, human. The following applies: without NIR laser; 1 h to 48 h incubation. The protocol: MDA-MB-231 cells were transferred and cultured onto 20-mm glass cover slips in a 24-well plate and allowed to grow for 2 days. Then the medium was replaced with 1 mL of fresh culture medium containing free DOX, DOX@HAuNS, or DOX@PEG-HAuNS. After incubation for 1 hr or 48 h, the cell monolayer on the cover slip was removed, repeatedly rinsed with PBS, and then mounted for microscopic examination. The cellular fluorescence and dark-field light scattering images were examined under a Zeiss Axio Observer.Z1 fluorescence microscope (Carl Zeiss MicroImaging GmbH, USA) equipped with a dark-field condenser.
In a separated experiment, MDA-MB-231 cells cultured on 20-mm glass cover slips were irradiated with NIR laser (1.0 W/cm^2 for 3 min per treatment, 4 treatments in 2 h). Cell nuclei were stained with DAPI. The cellular fluorescence and light scattering images were obtained as described in the preceding paragraph.

Test [2] concerns MDA-MB-231 cells. Put plainly: Cytotoxicity of DOX-HAuNS and DOX-PEG-HAuNS (MTT). The test is classed as cell-based, human. The following applies: equivalent DOX concentration 10 μg/mL, no NIR. The protocol: A total of 2.0×10^4 cells were plated in 96-well plates and incubated for 24 h to allow the cells to attach. The cells were exposed to free DOX, DOX@HAuNS, or DOX@PEG-HAuNS with various DOX concentrations. The cells were or were not irradiated with NIR laser at an output power of 2 W/cm^2 (3 min per treatment, 4 treatments in 2 h). Then the cells were incubated at 37° C. for a further 48 h. […] The data reported represented the means of triplicate measurements. In a separate experiment, the cells were exposed to HAuNS with various Au concentrations and then were or were not irradiated with NIR laser under the same conditions. Cell survival efficiency was measured after the incubation at 37° C. for 48 h.

Turning to `COc1cccc2c1C(=O)c1c(O)c3c(c(O)c1C2=O)C[C@@](O)(C(=O)CO)C[C@@H]3O[C@H]1C[C@H](N)[C@H](O)[C@H](C)O1` [free DOX, doxorubicin], in the test on MDA-MB-231 cells [1], the “cellular uptake and intracellular distribution” value was “taken up by the tumor cells and distributed to cell nuclei”. Further, the cells killed in the test with MDA-MB-231 cells [2] is recorded as 77.4%.
